Results as given in US20070191356A1, “Pyridobenzoxazine derivative” (priority 2004, published 2007).
≈ marks a conversion by molar mass, not a printed value. Read-outs that look alike come from different tables or passages of the source.

What was measured:
[1] = test system: S. epidermidis, 56500; test: Antimicrobial activity MIC, standard method of Japanese Society of Chemotherapy; assay type: cell-based
Procedure: (§1) The antimicrobial activity of the compounds of the present invention is measured in accordance with the standard method designated by Japanese Society of Chemotherapy and MIC (microgram/ml) values are shown as its results in Table 1.

[2] = test system: Str. pneumoniae, J24; test: as above; assay type: cell-based
Procedure: as §1

[3] = test system: Str. pyogenes, G-36; test: as above; assay type: cell-based
Procedure: as §1

[4] = test system: Ser. marcescens, 10100; test: as above; assay type: cell-based
Procedure: as §1

[5] = test system: Ps. aeruginosa, 32121; test: as above; assay type: cell-based
Procedure: as §1

[6] = test system: S. flexneri, 2A 5503; test: as above; assay type: cell-based
Procedure: as §1

[7] = test system: S. aureus, 209P; test: as above; assay type: cell-based
Procedure: as §1

[8] = test system: E. coli, NIHJ; test: as above; assay type: cell-based
Procedure: as §1

[9] = test system: S. aureus, 870307; test: as above; assay type: cell-based
Procedure: as §1

[10] = test system: Ps. aeruginosa, 32104; test: as above; assay type: cell-based
Procedure: as §1

[11] = test system: Str. faecalis, ATCC-19433; test: as above; assay type: cell-based
Procedure: as §1

[12] = test system: K. pneumoniae, Type I; test: as above; assay type: cell-based
Procedure: as §1

[13] = test system: S. maltophilia, IID-1275; test: as above; assay type: cell-based
Procedure: as §1

[14] = test system: Pr. vulgalis, 08601; test: as above; assay type: cell-based
Procedure: as §1

[15] = test system: Slc:ddY male mice; test: Single intravenous dosing toxicity test in mice; assay type: in vivo; conditions: single intravenous dose 150 mg/kg, six-week-old Slc:ddY male mice
Procedure: The single intravenous dosing toxicity test in mice using the invention compound was carried out in the following manner. The compound was dissolved in and diluted with 0.1 mol/l NaOH/physiological saline. After the diluted solution was sterilized by filtration through a 0.22 μm filter of Millex GS, the resulting sterilized solution was intravenously administered to six-week-old Slc:ddY male mice at an administration rate of 10 ml/kg or 0.2 ml/min as a single dose. Similar to Test 1, the compound obtained in Example 2 of Patent Document 2 was employed as a comparative compound.

[16] = Staphylococcus epidermidis, 56500, S. epidermidis, read-out: MIC
[17] = Streptococcus pneumoniae, J24, Str. pneumoniae, read-out: MIC
[18] = Serratia marcescens, 10100, Ser. marcescens, read-out: MIC
[19] = Pseudomonas aeruginosa, 32121, Ps. aeruginosa, read-out: MIC
[20] = Staphylococcus aureus, read-out: MIC
[21] = Pseudomonas aeruginosa, 32104, Ps. aeruginosa, read-out: MIC
[22] = Enterococcus faecalis, ATCC19433, Str. faecalis, read-out: MIC
[23] = Klebsiella pneumoniae, read-out: MIC
[24] = Stenotrophomonas maltophilia, IID1275, S. maltophilia, read-out: MIC
[25] = Ps. aeruginosa, listed as Ex. 3
[26] = Streptococcus pyogenes, G36, Str. pyogenes, read-out: MIC
[27] = Shigella flexneri, 2A5503, S. flexneri, read-out: MIC
[28] = Escherichia coli, read-out: MIC
[29] = Staphylococcus aureus, 870307, S. aureus, read-out: MIC

SMILES | melting point [°C] | MIC [1, 16] [µg/mL] | MIC [2, 17] [µg/mL] | MIC [4, 18] [µg/mL] | MIC [5, 19] [µg/mL] | MIC [7, 20] [µg/mL] | MIC [10, 21] [µg/mL] | MIC [11, 22] [µg/mL] | MIC [12, 23] [µg/mL] | MIC [13, 24] [µg/mL] | MIC [3, 26] [µg/mL] | MIC [6, 27] [µg/mL] | MIC [8, 28] [µg/mL] | MIC [9, 29] [µg/mL] | MIC ([14]; read-out: MIC) [µg/mL] | further results
C[C@H]1COc2c(N3CC(N)C(C(F)F)C3)c(F)cc3c(=O)c(C(=O)O)cn1c23 (single isomer, unassigned) [Example 2] | 247 to 252 | 0.1 (≈ 0.252 µM) | 0.2 (≈ 0.503 µM) | 0.05 (≈ 0.126 µM) | 0.05 (≈ 0.126 µM) | 0.025 (≈ 0.0629 µM) | 0.2 (≈ 0.503 µM) | 0.39 (≈ 0.981 µM) | 0.05 (≈ 0.126 µM) | 0.2 (≈ 0.503 µM) |  |  |  |  |  | MIC ([3]; Str. pyogenes, listed as Ex. 2): 0.2 microgram/ml; MIC ([6]; S. flexneri, listed as Ex. 2): 0.012 microgram/ml; MIC ([8]; listed as Ex. 2): ≦0.003 microgram/ml; MIC ([9]; S. aureus, listed as Ex. 2): 1.56 microgram/ml; MIC ([14]; listed as Ex. 2): 0.012 microgram/ml
C[C@H]1COc2c(N3CC(N)C(C(F)F)C3)c(F)cc3c(=O)c(C(=O)O)cn1c23 (single isomer, unassigned) [Example 3] | 264 to 268 |  |  |  |  |  |  |  |  |  |  |  |  |  |  | MIC ([1]; S. epidermidis, listed as Ex. 3): 0.2 microgram/ml; MIC ([2]; Str. pneumoniae, listed as Ex. 3): 0.39 microgram/ml; MIC ([3]; Str. pyogenes, listed as Ex. 3): 0.78 microgram/ml; MIC ([4]; Ser. marcescens, listed as Ex. 3): 0.1 microgram/ml; MIC [5, 25]: 0.1 microgram/ml; MIC ([6]; S. flexneri, listed as Ex. 3): 0.025 microgram/ml; MIC ([7]; listed as Ex. 3): 0.05 microgram/ml; MIC ([8]; listed as Ex. 3): 0.012 microgram/ml; MIC ([9]; S. aureus, listed as Ex. 3): 3.13 microgram/ml; MIC [10, 25]: 0.39 microgram/ml; MIC ([11]; Str. faecalis, listed as Ex. 3): 0.78 microgram/ml; MIC ([12]; listed as Ex. 3): 0.1 microgram/ml; MIC ([13]; S. maltophilia, listed as Ex. 3): 0.39 microgram/ml; MIC ([14]; listed as Ex. 3): 0.025 microgram/ml
O=C(O)c1cn(C2CC2)c2cc(N3CCNCC3)c(F)cc2c1=O [CPFX, ciprofloxacin, reference compound] |  | 0.2 (≈ 0.604 µM) | 0.1 (≈ 0.302 µM) | 0.025 (≈ 0.0754 µM) | 0.025 (≈ 0.0754 µM) | 0.1 (≈ 0.302 µM) | 0.005 (≈ 0.0151 µM) | 0.78 (≈ 2.35 µM) | 0.025 (≈ 0.0754 µM) | 0.78 (≈ 2.35 µM) | 1.56 (≈ 4.71 µM) | 0.006 (≈ 0.0181 µM) | ≤ 0.003 | 3.13 (≈ 9.45 µM) | ≤ 0.003 | 
COc1c(N2C[C@H](CF)[C@H](N)C2)c(F)cc2c(=O)c(C(=O)O)cn(C3CC3)c12 [Comparative Compound, reference compound] |  | 0.05 (≈ 0.127 µM) | 0.025 (≈ 0.0636 µM) | 0.05 (≈ 0.127 µM) | 0.05 (≈ 0.127 µM) | 0.012 (≈ 0.0305 µM) | 0.2 (≈ 0.508 µM) | 0.1 (≈ 0.254 µM) | 0.025 (≈ 0.0636 µM) | 0.05 (≈ 0.127 µM) | 0.1 (≈ 0.254 µM) | 0.006 (≈ 0.0153 µM) | ≤ 0.003 | 0.39 (≈ 0.991 µM) | 0.006 (≈ 0.0153 µM) | Number of deaths/total number ([15]; 150 mg/kg): 3/5; Number of deaths/total number ([15]; listed as comparative compound, 150 mg/kg): three of five mice died
C[C@H]1COc2c(N3C[C@H](CF)[C@H](N)C3)c(F)cc3c(=O)c(C(=O)O)cn1c23 [Example 1, 10-[3-(S)-Amino-4-(S)-fluoromethylpyrrolidin-1-yl]-9-fluoro-2,3-dihydro-3-(S)-methyl-7-oxo-7H-pyridol-[1,2,3-de][1,4]benzoxazine-6-carboxylic acid] |  | 0.1 (≈ 0.264 µM) | 0.1 (≈ 0.264 µM) | 0.05 (≈ 0.132 µM) | 0.025 (≈ 0.0659 µM) | 0.025 (≈ 0.0659 µM) | 0.1 (≈ 0.264 µM) | 0.2 (≈ 0.527 µM) | 0.05 (≈ 0.132 µM) | 0.39 (≈ 1.03 µM) | 0.2 (≈ 0.527 µM) | 0.012 (≈ 0.0316 µM) | 0.006 (≈ 0.0158 µM) | 1.56 (≈ 4.11 µM) | 0.012 (≈ 0.0316 µM) | Number of deaths/total number [15]: 0/5
C[C@H]1COc2c(N3CCN(C)CC3)c(F)cc3c(=O)c(C(=O)O)cn1c23 [LVFX, levofloxacin, reference compound] |  | 0.39 (≈ 1.08 µM) | 0.78 (≈ 2.16 µM) | 0.1 (≈ 0.277 µM) | 0.1 (≈ 0.277 µM) | 0.2 (≈ 0.553 µM) | 0.2 (≈ 0.553 µM) | 0.78 (≈ 2.16 µM) | 0.1 (≈ 0.277 µM) | 0.39 (≈ 1.08 µM) | 0.2 (≈ 0.553 µM) | 0.025 (≈ 0.0692 µM) | 0.12 (≈ 0.332 µM) | > 6.25 | 0.012 (≈ 0.0332 µM) | 
